According to ChEMBL document CHEMBL1201862, “PubChem BioAssay data set” (2004):
Counter-ions that a name gives are not always drawn.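 Compound exposure: 48 hours, 5 concentrations, 96-well plates. Here, GI50 denotes the concentration required for 50% inhibition of growth.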 Calls of active or inactive are those of the source. Cut-off read from the data, not from the text of the source: active = GI50 up to about 1.1 µM and inactive = higher.

Key:
Test in all cases: NCI anticancer screen, dose series, 48 h
786-0 = tested on: 786-0
A549 = tested on: A549
CCRF-CEM = tested on: CCRF-CEM
DU-145 = tested on: DU-145
EKVX = tested on: EKVX
HCT-15 = tested on: HCT-15
Hs-578T = tested on: Hs-578T
KM12 = tested on: KM12
MDA-N = tested on: MDA-N
MOLT-4 = tested on: MOLT-4
SF-268 = tested on: SF-268
SF-295 = tested on: SF-295
SK-MEL-2 = tested on: SK-MEL-2
SK-MEL-5 = tested on: SK-MEL-5
SK-OV-3 = tested on: SK-OV-3
SN12C = tested on: SN12C
SW-620 = tested on: SW-620
TK-10 = tested on: TK-10
UO-31 = tested on: UO-31
A498 = tested on: A498

| Compound | GI50 (786-0) | GI50 (A549) | GI50 (CCRF-CEM) | GI50 (DU-145) | GI50 (EKVX) | GI50 (HCT-15) [µM] | GI50 (Hs-578T) | GI50 (KM12) | GI50 (MDA-N) | GI50 (MOLT-4) | GI50 (SF-268) | GI50 (SF-295) | GI50 (SK-MEL-2) | GI50 (SK-MEL-5) | GI50 (SK-OV-3) | GI50 (SN12C) | GI50 (SW-620) | GI50 (TK-10) | GI50 (UO-31) | GI50 (A498) |
| --- | --- | --- | --- | --- | --- | --- | --- | --- | --- | --- | --- | --- | --- | --- | --- | --- | --- | --- | --- | --- |
| COc1ccc(-c2cc3c(c4cc(OC)ccc24)C(=O)OC3=O)cc1 | > 100 µM (inactive) | > 100 µM (inactive) | > 100 µM (inactive) | > 100 µM (inactive) | > 100 µM (inactive) | > 100 | > 100 µM (inactive) | > 100 µM (inactive) | 86.5 µM (inactive) | > 100 µM (inactive) | > 100 µM (inactive) | > 100 µM (inactive) | > 100 µM (inactive) | > 100 µM (inactive) | > 100 µM (inactive) | > 100 µM (inactive) | > 100 µM (inactive) | > 100 µM (inactive) | 95.5 µM (inactive) |  |
| COC(=O)c1c(C)cccc1C1CN=NC12Cc1ccc(C)cc1C2=O (stereo not drawn) | 71.3 µM (inactive) | 33.5 µM (inactive) | 32.4 µM (inactive) | 49 µM (inactive) | 26.7 µM (inactive) | 50.2 | 39.4 µM (inactive) | 47.9 µM (inactive) | 41.4 µM (inactive) | 27.4 µM (inactive) | 50.7 µM (inactive) | 65.9 µM (inactive) |  | 17.5 µM (inactive) |  | 48.4 µM (inactive) | 41 µM (inactive) | > 100 µM (inactive) | 36.1 µM (inactive) | 43.6 µM (inactive) |
| O=C1c2ccccc2/C=C\C(c2ccccc2)=N/N1c1ccccc1Cl | 29.2 µM (inactive) | 17.1 µM (inactive) | 34.5 µM (inactive) | 49.1 µM (inactive) | 22.5 µM (inactive) | 29.5 | 34.5 µM (inactive) | 11.6 µM (inactive) | 3.44 µM (inactive) | 15.3 µM (inactive) | 54.2 µM (inactive) | 26.1 µM (inactive) | 60 µM (inactive) | 13.4 µM (inactive) |  | 23 µM (inactive) | 20.1 µM (inactive) | 42.8 µM (inactive) | 32.5 µM (inactive) | 26.5 µM (inactive) |
| O=c1oc2ccccc2c(Nc2ccc3c(c2)S(=O)(=O)c2ccccc2O3)c1[N+](=O)[O-] | 21.1 µM (inactive) | 28.1 µM (inactive) | 23.6 µM (inactive) | 27.6 µM (inactive) | 30.6 µM (inactive) | 25.8 | 36.7 µM (inactive) | 28.9 µM (inactive) | 22.5 µM (inactive) |  | 33.8 µM (inactive) | 24.8 µM (inactive) | 19.3 µM (inactive) | 20.1 µM (inactive) | 24 µM (inactive) | 25.6 µM (inactive) | 32.8 µM (inactive) | 22.4 µM (inactive) | 33.4 µM (inactive) |  |
| CCOC(=O)c1nc2ccc(C(F)(F)F)cc2nc1NCc1ccc(OC)cc1 | > 100 µM (inactive) | 49.4 µM (inactive) | > 100 µM (inactive) |  | > 100 µM (inactive) | 82.8 | 99.5 µM (inactive) | 36 µM (inactive) | > 100 µM (inactive) | 31.3 µM (inactive) | > 100 µM (inactive) | > 100 µM (inactive) | 97.9 µM (inactive) | 58.2 µM (inactive) | > 100 µM (inactive) |  | > 100 µM (inactive) | 71.6 µM (inactive) | > 100 µM (inactive) | 58.6 µM (inactive) |
| COc1ccc(P2(=S)OCCOP(=S)(c3ccc(OC)cc3)S2)cc1 (stereo not drawn) | 4.79 µM (inactive) | 3.01 µM (inactive) | 2.97 µM (inactive) | 3.74 µM (inactive) | > 21.8 µM (inactive) | 2.29 | 5.48 µM (inactive) | 2.87 µM (inactive) | 2.29 µM (inactive) | 2.87 µM (inactive) | 3.99 µM (inactive) | 2.53 µM (inactive) | 3.51 µM (inactive) | 3.02 µM (inactive) |  | 2.56 µM (inactive) | 4.54 µM (inactive) | 16.3 µM (inactive) | 0.638 µM (active) | 2.45 µM (inactive) |
| O=C(NCc1ccc(Cl)cc1)c1cc2sccc2nc1C(F)(F)F | 18.2 µM (inactive) | 34.2 µM (inactive) | > 100 µM (inactive) |  | 34 µM (inactive) |  | 19.8 µM (inactive) | 87.1 µM (inactive) | > 100 µM (inactive) | > 100 µM (inactive) | 24.2 µM (inactive) | 28 µM (inactive) | 50 µM (inactive) | 49.7 µM (inactive) | 34 µM (inactive) | 44.8 µM (inactive) | 54.2 µM (inactive) | 33.7 µM (inactive) | 30.5 µM (inactive) |  |
| COc1cc(OCc2ccc3nc(-c4ccccc4)c(Cl)nc3c2)cc(OC)c1OC | 29.4 µM (inactive) | > 100 µM (inactive) | > 100 µM (inactive) | > 100 µM (inactive) | 59.2 µM (inactive) | > 100 | 39.6 µM (inactive) | > 100 µM (inactive) | > 100 µM (inactive) | > 100 µM (inactive) | > 100 µM (inactive) | 37.4 µM (inactive) | 45.5 µM (inactive) | 20.5 µM (inactive) |  | > 100 µM (inactive) | > 100 µM (inactive) | 19.4 µM (inactive) | > 100 µM (inactive) | 32.5 µM (inactive) |
| COc1ccc(-c2c(C#N)c(N)nc(S)c2C#N)cc1 | 21.1 µM (inactive) | 48.4 µM (inactive) |  | 34.8 µM (inactive) | 36.1 µM (inactive) | 33.3 | 19.1 µM (inactive) | 41.8 µM (inactive) | 11.5 µM (inactive) | 17.1 µM (inactive) | 30.7 µM (inactive) | 27.6 µM (inactive) | 36.1 µM (inactive) | 26.2 µM (inactive) |  | 29.1 µM (inactive) | 22.2 µM (inactive) | 71.3 µM (inactive) | 34.9 µM (inactive) | > 100 µM (inactive) |
| CC1(C)c2ccccc2C(=O)C12CCC(=O)CC2 | > 100 µM (inactive) | > 100 µM (inactive) | > 100 µM (inactive) | > 100 µM (inactive) | > 100 µM (inactive) | > 100 | 69.8 µM (inactive) | > 100 µM (inactive) | > 100 µM (inactive) | > 100 µM (inactive) | > 100 µM (inactive) | > 100 µM (inactive) | > 100 µM (inactive) | > 10 µM (inactive) | > 100 µM (inactive) | > 100 µM (inactive) | > 100 µM (inactive) | > 100 µM (inactive) | 33.7 µM (inactive) |  |
| CN(C)CCCSc1nc2ccccc2[nH]1 | > 100 µM (inactive) | > 100 µM (inactive) |  | > 100 µM (inactive) | > 100 µM (inactive) | > 100 | > 100 µM (inactive) | > 100 µM (inactive) | > 100 µM (inactive) |  | > 100 µM (inactive) | > 100 µM (inactive) | > 100 µM (inactive) | > 100 µM (inactive) | > 100 µM (inactive) | > 100 µM (inactive) | > 100 µM (inactive) | > 100 µM (inactive) | > 100 µM (inactive) | > 100 µM (inactive) |
| CN(C)CCOC(c1ccccc1)c1ccccc1 [DIPHENHYDRAMINE HYDROCHLORIDE] | > 100 µM (inactive) | > 100 µM (inactive) | > 100 µM (inactive) | > 100 µM (inactive) | > 100 µM (inactive) | > 100 | 66.7 µM (inactive) | > 100 µM (inactive) | > 100 µM (inactive) | > 100 µM (inactive) |  |  | 72.4 µM (inactive) | > 100 µM (inactive) |  | > 100 µM (inactive) | > 100 µM (inactive) | > 100 µM (inactive) | > 100 µM (inactive) |  |
| O=C(Nc1ccc(Cl)cc1)c1cc(S(=O)(=O)Nc2n[nH]c(Nc3ccc4ccccc4c3)n2)c(SSc2cc(Cl)c(C(=O)Nc3ccc(Cl)cc3)cc2S(=O)(=O)Nc2n[nH]c(Nc3ccc4ccccc4c3)n2)cc1Cl | 31.2 µM (inactive) | 41.7 µM (inactive) | 20.5 µM (inactive) | 24.4 µM (inactive) | 42.9 µM (inactive) | 21.7 | 31.8 µM (inactive) | 20 µM (inactive) | 32.4 µM (inactive) | 19.1 µM (inactive) | 41.4 µM (inactive) | 20.5 µM (inactive) |  | 21.3 µM (inactive) | 33.5 µM (inactive) | 22.5 µM (inactive) | 21.3 µM (inactive) | 27.3 µM (inactive) | 24.2 µM (inactive) | 23.6 µM (inactive) |
| Fc1ccc2c(c1)nc1n2C(c2c(Cl)cccc2Cl)SC1 (stereo not drawn) | 16 µM (inactive) | 14.9 µM (inactive) |  | 16.4 µM (inactive) |  | 11.7 | 18.3 µM (inactive) | 12 µM (inactive) | 12.1 µM (inactive) | 8.02 µM (inactive) | 15.8 µM (inactive) | 13.7 µM (inactive) | 15 µM (inactive) | 8.71 µM (inactive) | 14.8 µM (inactive) | 17.3 µM (inactive) | 13.2 µM (inactive) | 17.5 µM (inactive) | 15.4 µM (inactive) | 20.9 µM (inactive) |
| CCCCCC(CO)C(O)(C(F)(F)F)C(F)(F)F (stereo not drawn) | > 10 µM (inactive) | > 10 µM (inactive) |  | > 10 µM (inactive) | > 10 µM (inactive) | > 10 | > 10 µM (inactive) | > 10 µM (inactive) | > 10 µM (inactive) | > 10 µM (inactive) | > 10 µM (inactive) | > 10 µM (inactive) | > 10 µM (inactive) | > 10 µM (inactive) | > 10 µM (inactive) | > 10 µM (inactive) | > 10 µM (inactive) | > 10 µM (inactive) |  | > 10 µM (inactive) |
